The molecules below were run against T1, human PTH1 receptor (Homo sapiens, UniProt Q03431) (assay: In vitro cAMP signal activity in HKRK-B7 cells (LLC-PK1 cells overexpressing the human PTH1 receptor)). Settings: HKRK-B7 cells; compound at 1×10^−3 M; cAMP produced as percentage of that produced by hPTH(1-34) at 100 nM.
T1 sequence (Q03431 27-593): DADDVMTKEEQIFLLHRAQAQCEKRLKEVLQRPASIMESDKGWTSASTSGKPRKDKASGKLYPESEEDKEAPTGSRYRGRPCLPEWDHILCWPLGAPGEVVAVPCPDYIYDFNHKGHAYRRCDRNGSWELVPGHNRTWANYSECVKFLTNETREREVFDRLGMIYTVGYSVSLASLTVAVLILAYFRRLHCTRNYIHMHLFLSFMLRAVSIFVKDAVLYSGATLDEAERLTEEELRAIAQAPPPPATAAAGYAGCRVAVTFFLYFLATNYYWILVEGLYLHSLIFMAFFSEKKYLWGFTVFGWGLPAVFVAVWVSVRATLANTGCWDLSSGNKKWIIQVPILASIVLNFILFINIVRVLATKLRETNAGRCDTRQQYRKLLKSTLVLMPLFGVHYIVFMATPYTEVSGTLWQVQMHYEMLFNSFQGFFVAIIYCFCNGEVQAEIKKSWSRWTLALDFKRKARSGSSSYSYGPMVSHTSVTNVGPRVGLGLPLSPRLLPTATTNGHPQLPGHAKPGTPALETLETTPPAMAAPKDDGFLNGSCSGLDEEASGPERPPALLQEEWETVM
Type: cell-based

First: Cc1cc(C(=O)N2CCC(C)(O)CC2)cc(C)c1/C=C/S(=O)(=O)N1CCC2(CC1)N=C(c1ccc(F)c(C(F)(F)F)c1)NC2=O [Compound 642, 2-(4-fluoro-3-trifluoromethyl-phenyl)-8-{(E)-2-[4-(4-hydroxy-4-methyl-piperidine-1-carbonyl)-2,6-dimethyl-phenyl]-ethenesulfonyl}-1,3,8-triaza-spiro[4.5]dec-1-en-4-one]
Second: Cc1cc(C(=O)N2CCC(C)(O)CC2)cc(C)c1/C=C/S(=O)(=O)N1CCC2(CC1)N=C(c1ccc(OCCCC(F)(F)C(F)(F)F)c(C(F)(F)F)c1)NC2=O [Compound 1202, 8-{(E)-2-[4-(4-hydroxy-4-methyl-piperidine-1-carbonyl)-2,6-dimethyl-phenyl]-ethenesulfonyl}-2-[4-(4,4,5,5,5-pentafluoro-pentyloxy)-3-trifluoromethyl-phenyl]-1,3,8-triaza-spiro[4.5]dec-1-en-4-one]
The “cAMP production activity (%)” value of the first is lower: 87% for the first, 91% for the second.

Compared with `Cc1cc(OC[C@H](O)CO)cc(C)c1CCS(=O)(=O)N1CCC2(CC1)N=C(c1cccc(OCCCC(F)(F)C(F)(F)F)c1)NC2=O` [Compound 1328, 8-{2-[4-((R)-2,3-Dihydroxy-propoxy)-2,6-dimethyl-phenyl]-ethanesulfonyl}-2-[3-(4,4,5,5,5-pentafluoro-pentyloxy)-phenyl]-1,3,8-triaza-spiro[4.5]dec-1-en-4-one], `Cc1cc(OC[C@H](O)CO)cc(C)c1CCS(=O)(=O)N1CCC2(CC1)N=C(c1ccc(F)c(OC(F)(F)F)c1)NC2=O` [Compound 1329, 8-{2-[4-((R)-2,3-dihydroxy-propoxy)-2,6-dimethyl-phenyl]-ethanesulfonyl}-2-(4-fluoro-3-trifluoromethoxy-phenyl)-1,3,8-triaza-spiro[4.5]dec-1-en-4-one] is lower in “cAMP production activity (%)” value: 93% for the first, 85% for the second.

Compared with `Cc1cc(N(C)C(N)=O)cc(C)c1CCS(=O)(=O)N1CCC2(CC1)N=C(C1CCC(CC(F)(F)C(F)(F)F)CC1)NC2=O` (centres unmarked) [Compound 1042, 1-[3,5-dimethyl-4-(2-{4-oxo-2-[4-(2,2,3,3,3-pentafluoro-propyl)-cyclohexyl]-1,3,8-triaza-spiro[4.5]dec-1-ene-8-sulfonyl}-ethyl)-phenyl]-1-methyl-urea], `Cc1cc(N(C)C(N)=O)cc(C)c1CCS(=O)(=O)N1CCC2(CC1)N=C(C1CCC(CC(F)(F)F)CC1)NC2=O` (centres unmarked) [Compound 936, 1-[3,5-Dimethyl-4-(2-{4-oxo-2-[4-(2,2,2-trifluoro-ethyl)-cyclohexyl]-1,3,8-triaza-spiro[4.5]dec-1-ene-8-sulfonyl}-ethyl)-phenyl]-1-methyl-urea] is lower in “cAMP production activity (%)” value: 102% for the first, 98% for the second.

Compared with `Cc1cc(N2C(=O)N(C)C(C)(C)C2=O)cc(C)c1/C=C/S(=O)(=O)N1CCC2(CC1)N=C(c1cccc(OC(F)(F)F)c1)NC2=O` [Compound 614, 3-(3,5-dimethyl-4-{(E)-2-[4-oxo-2-(3-trifluoromethoxy-phenyl)-1,3,8-triaza-spiro[4.5]dec-1-ene-8-sulfonyl]-vinyl}-phenyl)-1,5,5-trimethyl-imidazolidine-2,4-dione], `Cc1cc(C(=O)N2C[C@@H](O)[C@H](N(C)C)C2)cc(C)c1/C=C/S(=O)(=O)N1CCC2(CC1)N=C(c1cccc(C(F)(F)F)c1)NC2=O` [Compound 387, 8-{(E)-2-[4-((3R,4R)-3-dimethylamino-4-hydroxy-pyrrolidine-1-carbonyl)-2,6-dimethyl-phenyl]-ethenesulfonyl}-2-(3-trifluoromethyl-phenyl)-1,3,8-triaza-spiro[4.5]dec-1-en-4-one] is higher in “cAMP production activity (%)” value: 25% for the first, 97% for the second.

Compared with `CNCc1cc(C)c(/C=C/S(=O)(=O)N2CCC3(CC2)N=C(C2CCC(C)CC2)NC3=O)c(C)c1` (centres unmarked) [Compound 1289, 8-[(E)-2-(2,6-Dimethyl-4-methylaminomethyl-phenyl)-ethenesulfonyl]-2-(4-methyl-cyclohexyl)-1,3,8-triaza-spiro[4.5]dec-1-en-4-one], `Cc1cc(N2CCNCC2=O)ccc1/C=C/S(=O)(=O)N1CCC2(CC1)N=C(C1CCC(C)CC1)NC2=O` (centres unmarked) [Compound 1285, 2-(4-methyl-cyclohexyl)-8-{(E)-2-[2-methyl-4-(2-oxo-piperazin-1-yl)-phenyl]-ethenesulfonyl}-1,3,8-triaza-spiro[4.5]dec-1-en-4-one] is higher in “cAMP production activity (%)” value: 17% for the first, 67% for the second.

First: Cc1cc(N(C)C(N)=O)cc(C)c1/C=C/S(=O)(=O)N1CCC2(CC1)N=C(CCCCCCCCCC(=O)O)NC2=O [Compound 1171, 10-(8-{(E)-2-[2,6-Dimethyl-4-(1-methyl-ureido)-phenyl]-ethenesulfonyl}-4-oxo-1,3,8-triaza-spiro[4.5]dec-1-en-2-yl)-decanoic acid]
Second: Cc1cc(OCCC(O)CO)cc(C)c1/C=C/S(=O)(=O)N1CCC2(CC1)N=C(c1ccc(F)c(C(F)(F)F)c1)NC2=O (centres unmarked) [Compound 639, 8-{(E)-2-[4-(3,4-Dihydroxy-butoxy)-2,6-dimethyl-phenyl]-ethenesulfonyl}-2-(4-fluoro-3-trifluoromethyl-phenyl)-1,3,8-triaza-spiro[4.5]dec-1-en-4-one]
The “cAMP production activity (%)” value of the first is lower: 28% for the first, 101% for the second.

Compared with `CC(=O)Nc1cccc(C)c1CCS(=O)(=O)N1CCC2(CC1)N=C(C1CCCCC1)NC2=O` [Compound 276, N-{2-[2-(2-cyclohexyl-4-oxo-1,3,8-triaza-spiro[4.5]dec-1-ene-8-sulfonyl)-ethyl]-3-methyl-phenyl}-acetamide], `O=C(c1c[nH]c2cccc(CCS(=O)(=O)N3CCC4(CC3)N=C(C3CCCCC3)NC4=O)c12)C(F)(F)F` [Compound 649, 2-cyclohexyl-8-{2-[3-(2,2,2-trifluoro-acetyl)-1H-indol-4-yl]-ethanesulfonyl}-1,3,8-triaza-spiro[4.5]dec-1-en-4-one] is lower in “cAMP production activity (%)” value: 63% for the first, 40% for the second.

First: Cc1cc(C(=O)N(C)C)ccc1CCS(=O)(=O)N1CCC2(CC1)N=C(C1CCC(C)CC1)NC2=O (centres unmarked) [Compound 76, 3,N,N-trimethyl-4-{2-[2-(4-methyl-cyclohexyl)-4-oxo-1,3,8-triaza-spiro[4.5]dec-1-ene-8-sulfonyl]-ethyl}-benzamide]
Second: CCCCC1CCC(C2=NC3(CCN(S(=O)(=O)CCc4ccc(C(=O)N(C)C)cc4C)CC3)C(=O)N2)CC1 (centres unmarked) [Compound 894, 4-{2-[2-(4-butyl-cyclohexyl)-4-oxo-1,3,8-triaza-spiro[4.5]dec-1-ene-8-sulfonyl]-ethyl}-3,N,N-trimethyl-benzamide]
The “cAMP production activity (%)” value of the first is lower: 73% for the first, 85% for the second.

First: CC(=O)N(C)c1cc(C)c(CCS(=O)(=O)N2CCC3(CC2)N=C(C2CCC(CCC(F)(F)F)CC2)NC3=O)c(C)c1 (centres unmarked) [Compound 759, N-[3,5-dimethyl-4-(2-{4-oxo-2-[4-(3,3,3-trifluoro-propyl)-cyclohexyl]-1,3,8-triaza-spiro[4.5]dec-1-ene-8-sulfonyl}-ethyl)-phenyl]-N-methyl-acetamide]
Second: Cc1cc(OC[C@H](O)CO)cc(C)c1/C=C/S(=O)(=O)N1CCC2(CC1)N=C(C1CCC(CCC(F)(F)F)CC1)NC2=O (stereo partly drawn) [Compound 697, 8-{(E)-2-[4-((R)-2,3-Dihydroxy-propoxy)-2,6-dimethyl-phenyl]-ethenesulfonyl}-2-[4-(3,3,3-trifluoro-propyl)-cyclohexyl]-1,3,8-triaza-spiro[4.5]dec-1-en-4-one]
The “cAMP production activity (%)” value of the first is higher: 79% for the first, 60% for the second.

First: Cc1cc(OC2CCN(C(=O)OC(C)(C)C)CC2)ccc1/C=C/S(=O)(=O)N1CCC2(CC1)N=C(c1cccc(OC(F)(F)F)c1)NC2=O [Compound 602, 4-(3-methyl-4-{(E)-2-[4-oxo-2-(3-trifluoromethoxy-phenyl)-1,3,8-triaza-spiro[4.5]dec-1-ene-8-sulfonyl]-vinyl}-phenoxy)-piperidine-1-carboxylic acid tert-butyl ester]
Second: O=C1NC(c2ccc(Cl)cc2Cl)=NC12CCN(S(=O)(=O)c1ccccc1C(F)(F)F)CC2 [Compound 45, 2-(2,4-dichloro-phenyl)-8-(2-trifluoromethyl-benzenesulfonyl)-1,3,8-triaza-spiro[4.5]dec-1-en-4-one]
The “cAMP production activity (%)” value of the first is lower: 3.0% for the first, 22% for the second.

First: Cc1oc(-c2ccccc2)nc1CC(=O)N1CCCC(C2=NC3(CCN(S(=O)(=O)CCc4cccc5ccccc45)CC3)C(=O)N2)C1 (centres unmarked) [Compound 434, 2-{1-[2-(5-methyl-2-phenyl-oxazol-4-yl)-acetyl]-piperidin-3-yl}-8-(2-naphthalen-1-yl-ethanesulfonyl)-1,3,8-triaza-spiro[4.5]dec-1-en-4-one]
Second: Cc1cc(N2C(=O)CNC2=O)ccc1CCS(=O)(=O)N1CCC2(CC1)N=C(C1CCC(C)CC1)NC2=O (centres unmarked) [Compound 881, 3-(3-methyl-4-{2-[2-(4-methyl-cyclohexyl)-4-oxo-1,3,8-triaza-spiro[4.5]dec-1-ene-8-sulfonyl]-ethyl}-phenyl)-imidazolidine-2,4-dione]
The “cAMP production activity (%)” value of the first is lower: 25% for the first, 48% for the second.

`O=C1NC(CCCCCCCC(F)(F)C(F)(F)F)=NC12CCN(S(=O)(=O)CCc1cccc3c1ccn3C[C@H](O)CO)CC2` [Compound 788, 8-{2-[1-((S)-2,3-dihydroxy-propyl)-1H-indol-4-yl]-ethanesulfonyl}-2-(8,8,9,9,9-pentafluoro-nonyl)-1,3,8-triaza-spiro[4.5]dec-1-en-4-one] was tested, and the “cAMP production activity (%)” value was 142%.

Reference: patent publication US9169254B2, “Spiroimidazolone derivative” (Chugai Seiyaku Kabushiki Kaisha, priority 2009, dated 2015)
